Here are results for five molecules from ChEMBL document CHEMBL1146616, “Synthesis and structure-activity relationships of open D-Ring galanthamine analogues” (Bioorg Med Chem Lett, 2003).

For one experiment, the target named is Acetylcholinesterase (Electrophorus electricus, UniProt O42275).
In experiment [1] the target is T1, Cholinesterase (Homo sapiens, UniProt P06276).
Description: In vitro inhibitory activity against Butyrylcholinesterase (BChE) in human serum
The target in experiment [2] is T1, Cholinesterase. In words: Ratio of inhibitory activity against butyrylcholinesterase (BChE) to that of acetylcholinesterase (AChE).

T1 sequence (P06276 whole entry): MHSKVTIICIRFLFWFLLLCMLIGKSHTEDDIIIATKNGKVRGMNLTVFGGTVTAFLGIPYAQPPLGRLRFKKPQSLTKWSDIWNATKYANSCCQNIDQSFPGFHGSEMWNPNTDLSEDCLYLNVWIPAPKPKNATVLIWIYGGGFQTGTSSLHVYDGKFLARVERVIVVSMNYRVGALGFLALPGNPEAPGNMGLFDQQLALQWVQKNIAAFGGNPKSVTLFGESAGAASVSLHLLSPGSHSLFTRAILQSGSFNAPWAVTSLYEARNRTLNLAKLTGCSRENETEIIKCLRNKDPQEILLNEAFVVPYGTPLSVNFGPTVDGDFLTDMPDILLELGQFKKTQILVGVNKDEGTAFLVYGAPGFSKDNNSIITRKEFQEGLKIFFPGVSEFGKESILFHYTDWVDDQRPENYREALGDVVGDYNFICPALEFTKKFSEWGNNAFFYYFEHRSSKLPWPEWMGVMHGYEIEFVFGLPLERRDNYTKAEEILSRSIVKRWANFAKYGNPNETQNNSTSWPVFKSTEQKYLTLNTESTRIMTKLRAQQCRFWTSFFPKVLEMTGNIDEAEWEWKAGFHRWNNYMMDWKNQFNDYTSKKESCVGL
Acetylcholinesterase, sequence (O42275 whole entry): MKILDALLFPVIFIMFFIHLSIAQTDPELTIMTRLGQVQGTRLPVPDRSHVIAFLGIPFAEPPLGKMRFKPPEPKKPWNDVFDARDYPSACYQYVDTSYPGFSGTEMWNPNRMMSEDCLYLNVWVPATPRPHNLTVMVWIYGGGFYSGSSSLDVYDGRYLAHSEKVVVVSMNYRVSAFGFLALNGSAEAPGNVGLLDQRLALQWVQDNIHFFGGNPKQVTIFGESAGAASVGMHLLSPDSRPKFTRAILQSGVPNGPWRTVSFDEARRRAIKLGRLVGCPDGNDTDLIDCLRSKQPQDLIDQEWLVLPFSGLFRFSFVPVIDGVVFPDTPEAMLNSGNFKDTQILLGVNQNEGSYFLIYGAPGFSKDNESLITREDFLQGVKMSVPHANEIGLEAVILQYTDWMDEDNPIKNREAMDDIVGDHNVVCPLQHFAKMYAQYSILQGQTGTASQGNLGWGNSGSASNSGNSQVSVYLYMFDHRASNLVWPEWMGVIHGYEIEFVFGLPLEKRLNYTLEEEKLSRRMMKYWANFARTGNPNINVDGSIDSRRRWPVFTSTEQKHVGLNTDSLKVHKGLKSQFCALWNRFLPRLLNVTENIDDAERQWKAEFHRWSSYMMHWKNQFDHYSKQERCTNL
Description for Acetylcholinesterase: In vitro inhibitory activity against acetylcholinesterase (AChE) in Electrophorus electricus

As a reminder, the IC50 is the concentration needed to halve the response being measured. A higher IC50 goes with a need for much substance. As to `CCOC(=O)N(C)CC[C@@]12C=C[C@H](O)C[C@@H]1Oc1c(OC)ccc(CO)c12`, the IC50 at Acetylcholinesterase worked out at 580 µM; on Cholinesterase [1] it was 216 µM.
Taken in the same sequence, the figures for `CCOC(=O)N(C)CC[C@@]12C=C[C@H](O)C[C@@H]1Oc1c(OC)ccc(C=O)c12` were 1000 µM and 155 µM.
Turning to `CCOC(=O)O[C@H]1C=C[C@@]2(CCN(C)C(=O)OCC)c3c(CCl)ccc(OC)c3O[C@H]2C1`, the half-maximal inhibitory concentration (IC50) against Acetylcholinesterase amounted to 650 µM; against Cholinesterase [1], 790 µM. Moreover, on Cholinesterase [2], the Selectivity stood at 1.2.
Take `CCOC(=O)N1CC[C@@]23C=C[C@H](O)C[C@@H]2Oc2c(OC)ccc(c23)C1`: the IC50 at Acetylcholinesterase was found to be 67 µM; at Cholinesterase [1], 300 µM. Also, at Cholinesterase [2], the Selectivity was 4.5.
On to `COc1ccc2c3c1O[C@H]1C[C@@H](O)C=C[C@@]31CCN(C)OC2`, for which the IC50 against Acetylcholinesterase turned out to be 9900 µM; against Cholinesterase [1], 960 µM.
